The source of these data is patent US8389505B2, “Adamantane derivatives of AZA-crown ethers and their use in treatment of tumor” (Rudjer Boskovic Institute, priority 2009, dated 2013).

Holding throughout (assay type): cell-based
One test relates to MCF-7 (breast carcinoma). Description: MTT proliferation assay, MCF-7 cells. To be noted: Homo sapiens, MCF7, 72 hours incubation, read-out: IC50 (concentration that causes 50% growth inhibition), MCF-7. The method, then:
(§1) The described assay was used to test the effects of compounds on the proliferation of various human tumor cell lines, whereby cytostatic and cytotoxic effects on cells can be differentiated. The experiments were carried out on human cell lines, which were derived from 6 tumor types. The following cell lines were used: MCF-7 (breast carcinoma), SW 620 (colon carcinoma), HCT 116 (colon carcinoma), MOLT-4 (acute lymphoblastic leukemia), H 460 (lung carcinoma), HeLa (cervical carcinoma), MiaPaCa-2 (pancreatic carcinoma).
(§2) MCF-7, SW 620, HCT 116, HeLa, MiaPaCa-2 and H 460 cell lines were cultured as monolayers and maintained in Dulbecco's modified Eagle medium (DMEM), while MOLT-4 cells were cultured in suspension in nutritive medium RPMI 1640, both supplemented with 10% fetal bovine serum (FBS), 2 mM L-glutamine, 100 U/ml penicillin and 100 μg/ml streptomycin in a humidified atmosphere with 5% CO2 at 37° C.
(§3) The panel cell lines were inoculated onto a series of standard 96-well microtiter plates on day 0, at 1×10^4 to 3×10^4 cells/ml, depending on the doubling times of the specific cell line. Test agents were added next day to the cell lines in five consecutive 10-fold dilutions (10^−8 to 10^−4 M) and incubated for a further 72 hours. Working dilutions were freshly prepared on the day of testing. The solvent (DMSO) was also tested for eventual inhibitory activity by adjusting its concentration to be the same as in working concentrations. After 72 hours of incubation the cell growth rate was evaluated by performing the MTT assay (Mossman, Methods Immunol, 1983, 65, 55-63.), which detects dehydrogenase activity in viable cells. The MTT Cell Proliferation Assay is a colorimetric assay system, which measures the reduction of a tetrazolium component (MTT) into an insoluble formazan produced by mitochondria of viable cells. For this purpose the substance treated medium was discarded and MTT was added to each well in concentration of 20 μg/40 μl. After four hours of incubation the precipitates were dissolved in 160 μl of dimethylsulphoxide (DMSO). The absorbance (OD, optical density) was measured on a microplate reader at 570 nm. The absorbance is directly proportional to the cell viability. The percentage of growth (PG) of the cell lines was calculated according to one of the following two equations (according to the National Cancer Institute protocols, www.dtp.nci.nih.gov): If (mean ODtest−mean ODtzero)≧0 then PG=100×(mean ODtest−mean ODtzero)/(mean ODctrl−mean ODtzero). If (mean ODtest−mean ODtzero)<0 then: PG=100×(mean ODtest−mean ODtzero)/ODtzero.
(§4) Mean ODtzero=the average of optical density measurements before exposure of cells to the test compound.
(§5) Mean ODtest=the average of optical density measurements after the desired period of time.
(§6) Mean ODctrl=the average of optical density measurements after the desired period of time with no exposure of cells to the test compound.
(§7) Each test point was performed in quadruplicate in three individual experiments. The results were expressed as IC50, a concentration necessary for 50% of proliferation inhibition. Each result is a mean value from three separate experiments. The IC50 measures the growth inhibitory power of the test agent and represents the concentration that causes 50% growth inhibition. The IC50 is calculated from dose-response curves using linear regression analysis by fitting the test concentrations that give PG values above and below the respective reference value (e.g. 50% of inhibition for IC50). Therefore, a “real” value for any of the response parameters is obtained only if at least one of the tested drug concentrations falls above, and likewise at least one falls below the respective reference value. If however, for a given cell line or test agent all of the tested concentrations produce PGs exceeding the respective reference level of effect (e.g. PG value of 50%), then the highest tested concentration is assigned as the default value. […]
A general note: Tetrazolium dyes change colour on reduction, which living cells bring about.

For another test, the system named is H 460 (lung carcinoma). Kind of test: MTT proliferation assay, H 460 cells. Conditions: Homo sapiens, NCI-H460, 72 hours incubation, read-out: IC50 (concentration that causes 50% growth inhibition), H 460. The method, then:
as §1, §2, §3, §4, §5, §6, §7

A further test relates to SW 620 (colon carcinoma). Description: MTT proliferation assay, SW 620 cells. To be noted: Homo sapiens, 72 hours incubation, read-out: IC50 (concentration that causes 50% growth inhibition), SW 620. The method, then: as §1, §2, §3, §4, §5, §6, §7
Test [1] deals with MOLT-4 (acute lymphoblastic leukemia). Description: MTT proliferation assay, MOLT-4 cells. Conditions: Homo sapiens, 72 hours incubation, read-out: IC50 (concentration that causes 50% growth inhibition), MOLT-4. The method, then: as §1, §2, §3, §4
(§8) Mean ODtest=the average of optical density measurements after the desired period of time. […]

Test [2] concerns HCT 116 (colon carcinoma). Description: MTT proliferation assay, HCT 116 cells. To be noted: Homo sapiens, 72 hours incubation, read-out: IC50 (concentration that causes 50% growth inhibition), HCT 116. The method, then:
as §1, §2, §3, §4, §8

The subject of test [3] is HeLa (cervical carcinoma). Description: MTT proliferation assay, HeLa cells. Conditions: Homo sapiens, 72 hours incubation, read-out: IC50 (concentration that causes 50% growth inhibition), Hela. As to the method:
as §1, §2, §3, §4, §5, §6, §7

In test [4] the test system is MiaPaCa-2 (pancreatic carcinoma). Kind of test: MTT proliferation assay, MiaPaCa-2 cells. Conditions: Homo sapiens, MIA PaCa-2, 72 hours incubation, read-out: IC50 (concentration that causes 50% growth inhibition), MiaPaCa-2. As to the method: as §1, §2, §3, §4, §5, §6, §7
In test [5] the test system is various human tumor cell lines. Description: MTT proliferation assay, panel of tumor cell lines. To be noted: up to maximal tested concentration (c=100 μM) during 72 hours, all cell lines of Table 1. As to the method:
The described assay was used to test the effects of compounds on the proliferation of various human tumor cell lines, whereby cytostatic and cytotoxic effects on cells can be differentiated. The experiments were carried out on human cell lines, which were derived from 6 tumor types. The following cell lines were used: MCF-7 (breast carcinoma), SW 620 (colon carcinoma), HCT 116 (colon carcinoma), MOLT-4 (acute lymphoblastic leukemia), H 460 (lung carcinoma), HeLa (cervical carcinoma), MiaPaCa-2 (pancreatic carcinoma). […]
The panel cell lines were inoculated onto a series of standard 96-well microtiter plates on day 0, at 1×10^4 to 3×10^4 cells/ml, depending on the doubling times of the specific cell line. […] After 72 hours of incubation the cell growth rate was evaluated by performing the MTT assay (Mossman, Methods Immunol, 1983, 65, 55-63.), which detects dehydrogenase activity in viable cells. […] The absorbance (OD, optical density) was measured on a microplate reader at 570 nm. The absorbance is directly proportional to the cell viability. The percentage of growth (PG) of the cell lines was calculated according to one of the following two equations (according to the National Cancer Institute protocols, www.dtp.nci.nih.gov): If (mean ODtest−mean ODtzero)≧0 then PG=100×(mean ODtest−mean ODtzero)/(mean ODctrl−mean ODtzero). […]

As for `O=C(CCC12CC3CC(CC(C3)C1)C2)N1CCOCCOCCN(C(=O)CCC23CC4CC(CC(C4)C2)C3)CCOCCOCC1` [Compound 8, N,N′-Bis[1-oxo-3-(1-adamantyl)propyl]-4,13-diaza-18-crown-6], the IC50 in the test on MCF-7 (breast carcinoma) worked out at 2 ± 0.4 µM; with H 460 (lung carcinoma) it was 11 ± 5 µM; in the test on SW 620 (colon carcinoma), 19 ± 16 µM; in test [1], 3 ± 0.5 µM; in test [2], 6 ± 4 µM.
With `O=C(CC12CC3CC(CC(C3)C1)C2)N1CCOCCOCCOCCOCCOCC1` [Compound 3, N-[1-oxo-2-(1-adamantyl)ethyl]-aza-18-crown-6], the IC50 (with MCF-7 (breast carcinoma); in test [3]; in the test with H 460 (lung carcinoma); in test [4]; in the test on SW 620 (colon carcinoma)) was greater than 100 µM throughout.
For `O=C(CC12CC3CC(CC(C3)C1)C2)N1CCOCCOCCN(C(=O)CC23CC4CC(CC(C4)C2)C3)CCOCCOCC1` [Compound 7, N,N′-Bis[1-oxo-2-(1-adamantyl)ethyl]-4,13-diaza-18-crown-6], the IC50 in the test with MCF-7 (breast carcinoma) came to 5 ± 2 µM; with H 460 (lung carcinoma), 14 ± 1 µM; in the test on SW 620 (colon carcinoma), 12 ± 5 µM; in test [1], 6 ± 6 µM; in test [2], 6 µM.
Turning to `C(CN1CCOCCOCCN(CCCC23CC4CC(CC(C4)C2)C3)CCOCCOCC1)CC12CC3CC(CC(C3)C1)C2` [Compound 6, N,N″-Bis[3-(1-adamantyl)propyl]-4,13-diaza-18-crown-6], the IC50 in the test on MCF-7 (breast carcinoma) came out at 1 ± 0.4 µM; in the test on H 460 (lung carcinoma), 0.2 ± 0.3 µM; with SW 620 (colon carcinoma), 1 ± 0.4 µM; in test [1], 1 ± 1 µM; in test [2], 0.4 ± 0.4 µM.
Consider `C1COCCOCCN(CCC23CC4CC(CC(C4)C2)C3)CCOCCOCCO1` [Compound 1, N-[2-(1-adamantyl)ethyl]-aza-18-crown-6], for which the IC50 with MCF-7 (breast carcinoma) was 8 ± 4 µM; in test [3], 16 ± 0.5 µM; with H 460 (lung carcinoma), 15 ± 0.6 µM; in test [4], 12 ± 0.6 µM; in the test with SW 620 (colon carcinoma), 9 ± 6 µM.
For the compound `C1COCCOCCNCCOCCOCCN1` [Diaza-18-crown-6, diaza-18-crown-6, reference compound], the IC50 (in the test with MCF-7 (breast carcinoma); in test [3]; in the test with H 460 (lung carcinoma); in test [4]; with SW 620 (colon carcinoma); in test [1]) was greater than 100 µM in each case. The IC50 in test [2] was greater than 100 µM. The antiproliferative activity result in test [5] was “did not show any antiproliferative activity”.
With `C(CN1CCOCCOCCOCCOCCOCC1)CC12CC3CC(CC(C3)C1)C2` [Compound 2, N-[3-(1-adamantyl)propyl]-aza-18-crown-6], the IC50 with MCF-7 (breast carcinoma) stood at 6 ± 5 µM; in test [3] it was 14 ± 3 µM; in the test on H 460 (lung carcinoma), 15 ± 0.1 µM; in test [4], 11 ± 2 µM; with SW 620 (colon carcinoma), 9 ± 3 µM.
The corresponding values for `O=C(CCC12CC3CC(CC(C3)C1)C2)N1CCOCCOCCOCCOCCOCC1` [Compound 4, N-[1-oxo-3-(1-adamantyl)propyl]-aza-18-crown-6] are 17 ± 5 µM, 28 ± 7 µM, 72 ± 7 µM, 30 ± 3.4 µM and 13 ± 2 µM.
The corresponding values for `C1COCCN(CCC23CC4CC(CC(C4)C2)C3)CCOCCOCCN(CCC23CC4CC(CC(C4)C2)C3)CCO1` [Compound 5, N,N′-Bis[2-(1-adamantyl)ethyl]-4,13-diaza-18-crown-6] are 4 ± 0.7 µM, 2.3 ± 1.4 µM, 4 ± 3 µM, 1.7 ± 0.6 µM and 2.6 ± 1.9 µM.
